The values that follow come from patent publication US7939532B2, “Heterocyclyl pyridyl sulfonamide derivatives, their manufacture and use as pharmaceutical agents” (Hoffmann-La Roche Inc., priority 2006, dated 2011).

The assay has as its system HCT 116 cells (human colon carcinoma, ATCC-No. CCl-247). The assay can be described thus: CellTiter-Glo Luminescent Cell Viability Assay in HCT 116 cells. The format is cell-based. Conditions: HCT 116 cell viability, CellTiter-Glo (ATP luminescence), 5 days (120 h) incubation, 10 concentrations 30 μM to 0.0015 μM, triplicate. The source says: CellTiter-Glo™ Assay in HCT 116 Cells
The CellTiter-Glo™ Luminescent Cell Viability Assay (Promega) is a homogeneous method of determining the number of viable cells in culture based on quantitation of the ATP present, which signals the presence of metabolically active cells.
HCT 116 cells (human colon carcinoma, ATCC-No. CCl-247) were cultivated in RPMI 1640 medium with GlutaMAX™ I (Invitrogen, Cat-No. 61870-010), 5% Fetal Calf Serum (FCS, Sigma Cat-No. F4135 (FBS)); 100 Units/ml penicillin/100 μg/ml streptomycin (=Pen/Strep from Invitrogen Cat. No. 15140). For the assay the cells were seeded in 384 well plates, 1000 cells per well, in the same medium. The next day the test compounds were added in various concentrations ranging from 30 μM to 0.0015 μM (10 concentrations, 1:3 diluted). After 5 days the CellTiter-Glo™ assay was done according to the instructions of the manufacturer (CellTiter-Glo™ Luminescent Cell Viability Assay, from Promega). In brief the cell-plate was equilibrated to room temperature for approximately 30 minutes and than the CellTiter-Glo™ reagent was added. The contents were carefully mixed for 15 minutes to induce cell lysis. After 45 minutes the luminescent signal was measured in Victor 2, (scanning multiwell spectrophotometer, Wallac).
• Medium: RPMI 1640 with GlutaMAX™ I (Invitrogen, Cat-Nr. 61870), 5% FCS (Sigma Cat.-No. F4135), Pen/Strep (Invitrogen, Cat No. 15140). • HCT116 (ATCC-No. CCl-247): 1000 cells in 60 μl per well of 384 well plate (Greiner 781098, μClear-plate white) • After seeding incubate plates 24 h at 37° C., 5% CO2 2nd. Day: Induction (Treatment with Compounds, 10 Concentrations):
In order to achieve a final concentration of 30 μM as highest concentration 3.5 μl of 10 mM compound stock solution were added directly to 163 μl media. Then step e) of the dilution procedure described below, was followed.

Where a name gives a salt, the structure may show the parent alone.

Take `O=C(NS(=O)(=O)c1ccc(N2CCN(c3ccccn3)CC2)nc1)c1ccc(Cl)cc1Cl` [Example 1-1, 6-(4-Pyridin-2-yl-piperazin-1-yl)-pyridine-3-sulfonic acid 2,4-dichloro-benzoylamide; ammonium salt]: half-maximal inhibition (IC50) required 3.35 µM.

For `O=C(NS(=O)(=O)c1ccc(N2CCC3(CC2)OCCCO3)nc1)c1ccc(Cl)cc1C(F)(F)F` [Example 1-2, 6-(1,5-Dioxa-9-aza-spiro[5.5]undec-9-yl)-pyridine-3-sulfonic acid 4-chloro-2-trifluoromethyl-benzoylamide; ammonium salt], it took 4.28 µM to reach half-maximal inhibition (IC50).

Consider `Cc1cccc(N2CCN(c3ccc(S(=O)(=O)NC(=O)c4ccc(F)cc4C(F)(F)F)cn3)CC2)c1` [Example 1-3, 6-(4-m-Tolyl-piperazin-1-yl)-pyridine-3-sulfonic acid 4-fluoro-2-trifluoromethyl-benzoylamide; sodium salt], for which the IC50 (as a rule, the concentration that inhibits the measured activity by half) fell in the range of 1 to 10 µM.

Regarding `COc1cc(Cl)ccc1C(=O)NS(=O)(=O)c1ccc(N2CCN(c3ccccc3)CC2)nc1` [Example 1-4, 6-(4-Phenyl-piperazin-1-yl)-pyridine-3-sulfonic acid 4-chloro-2-methoxy-benzoylamide], the IC50 lay within 1 to 10 µM.

`O=C(NS(=O)(=O)c1ccc(N2CCN(c3ccccn3)CC2)nc1)c1ccc(F)cc1Cl` [Example 1-5, 6-(4-Pyridin-2-yl-piperazin-1-yl)-pyridine-3-sulfonic acid 2-chloro-4-fluoro-benzoylamide; ammonium salt] showed an IC50 of 1 to 10 µM.

For the molecule `O=C(NS(=O)(=O)c1ccc(N2CCN(c3ccccn3)CC2)nc1)c1ccc(F)cc1C(F)(F)F` [Example 1-6, 6-(4-Pyridin-2-yl-piperazin-1-yl)-pyridine-3-sulfonic acid 4-fluoro-2-trifluoromethyl-benzoylamide; ammonium salt], the IC50 was in the range of 1 to 10 µM.

For `O=C(NS(=O)(=O)c1ccc(N2CCN(c3ccc(F)cc3)CC2)nc1)c1ccc(F)cc1C(F)(F)F` [Example 1-7, 6-[4-(4-Fluoro-phenyl)-piperazin-1-yl]-pyridine-3-sulfonic acid 4-fluoro-2-trifluoromethyl-benzoylamide; ammonium salt], the IC50 lay in the range of 1 to 10 µM.

Regarding `COc1cc(Cl)ccc1C(=O)NS(=O)(=O)c1ccc(N2CCN(c3ccccc3OC)CC2)nc1` [Example 1-8, 6-[4-(2-Methoxy-phenyl)-piperazin-1-yl]-pyridine-3-sulfonic acid 4-chloro-2-methoxy-benzoylamide; ammonium salt], the IC50 lay in the range of 1 to 10 µM.

Regarding `COc1ccc(N2CCN(c3ccc(S(=O)(=O)NC(=O)c4ccc(Cl)cc4C(F)(F)F)cn3)CC2)cc1` [Example 1-9, 6-[4-(4-Methoxy-phenyl)-piperazin-1-yl]-pyridine-3-sulfonic acid 4-chloro-2-trifluoromethyl-benzoylamide], the IC50 was 1 to 10 µM.

`O=C(NS(=O)(=O)c1ccc(N2CCN(c3ccccc3)CC2)nc1)c1ccc(F)cc1Cl` [Example 1-10, 6-(4-Phenyl-piperazin-1-yl)-pyridine-3-sulfonic acid 2-chloro-4-fluoro-benzoylamide] displayed an IC50 of 1 to 10 µM.

Consider `COc1cc(Cl)ccc1C(=O)NS(=O)(=O)c1ccc(N2CCN(c3ccc(F)cc3)CC2)nc1` [Example 1-11, 6-[4-(4-Fluoro-phenyl)-piperazin-1-yl]-pyridine-3-sulfonic acid 4-chloro-2-methoxy-benzoylamide], for which the IC50 is 1.25 µM.

As for `COc1cc(Cl)ccc1C(=O)NS(=O)(=O)c1ccc(N2CCC3(CC2)OCCCO3)nc1` [Example 1-12, 6-(1,5-Dioxa-9-aza-spiro[5.5]undec-9-yl)-pyridine-3-sulfonic acid 4-chloro-2-methoxy-benzoylamide], the IC50 was in the range of 1 to 10 µM.

`COc1ccccc1N1CCN(c2ccc(S(=O)(=O)NC(=O)c3ccc(Cl)cc3C(F)(F)F)cn2)CC1` [Example 1-13, 6-[4-(2-Methoxy-phenyl)-piperazin-1-yl]-pyridine-3-sulfonic acid 4-chloro-2-trifluoromethyl-benzoylamide] showed an IC50 of 1 to 10 µM.

Regarding `COc1ccccc1N1CCN(c2ccc(S(=O)(=O)NC(=O)c3ccc(F)cc3Cl)cn2)CC1` [Example 1-14, 6-[4-(2-Methoxy-phenyl)-piperazin-1-yl]-pyridine-3-sulfonic acid 2-chloro-4-fluoro-benzoylamide; sodium salt], the IC50 fell in the range of 1 to 10 µM.

Molecule `O=C(NS(=O)(=O)c1ccc(N2CCN(c3ccccc3)CC2)nc1)c1ccc(Cl)cc1Cl` [Example 1-15, 6-(4-Phenyl-piperazin-1-yl)-pyridine-3-sulfonic acid 2,4-dichloro-benzoylamide; sodium salt] displayed an IC50 of 1 to 10 µM.

`O=C(NS(=O)(=O)c1ccc(N2CCN(c3ccc(F)cc3)CC2)nc1)c1ccc(Cl)cc1Cl` [Example 1-16, 6-[4-(4-Fluoro-phenyl)-piperazin-1-yl]-pyridine-3-sulfonic acid 2,4-dichloro-benzoylamide; sodium salt] displayed an IC50 of 1 to 10 µM.

In the case of `O=C(NS(=O)(=O)c1ccc(N2CCN(c3ccc(F)cc3)CC2)nc1)c1ccc(F)cc1Cl` [Example 1-17, 6-[4-(4-Fluoro-phenyl)-piperazin-1-yl]-pyridine-3-sulfonic acid 2-chloro-4-fluoro-benzoylamide; sodium salt], the half-maximal inhibitory concentration (IC50) was 1 to 10 µM.

As to `O=C(NS(=O)(=O)c1ccc(N2CCN(c3ccccc3)CC2)nc1)c1ccc(F)cc1C(F)(F)F` [Example 1-18, 6-(4-Phenyl-piperazin-1-yl)-pyridine-3-sulfonic acid 4-fluoro-2-trifluoromethyl-benzoylamide; sodium salt], the IC50 was in the range of 1 to 10 µM.

Consider `O=C(NS(=O)(=O)c1ccc(N2CCN(c3ccccc3F)CC2)nc1)c1ccc(F)cc1C(F)(F)F` [Example 1-19, 6-[4-(2-Fluoro-phenyl)-piperazin-1-yl]-pyridine-3-sulfonic acid 4-fluoro-2-trifluoromethyl-benzoylamide; sodium salt], for which the IC50 fell in the range of 1 to 10 µM.

With `O=C(NS(=O)(=O)c1ccc(N2CCN(c3ccc(F)cc3F)CC2)nc1)c1ccc(F)cc1C(F)(F)F` [Example 1-20, 6-[4-(2,4-Difluoro-phenyl)-piperazin-1-yl]-pyridine-3-sulfonic acid 4-fluoro-2-trifluoromethyl-benzoylamide; sodium salt], the IC50 was 1 to 10 µM.
